Experimental data: patent publication US20070128217A1 (priority 2003, published 2007)

Assays:
[1] = test system: antibodies in sera from SARS patients (sera 1a, 1b, 2, 6, 37, 62, London, SARS-yellow, SARS-green); format: binding, human; design: Binding of serum 6 to linear peptides of protein X1 of SARS-CoV Urbani / Binding of serum 37 to linear peptides of protein X1 of SARS-CoV Urbani / Binding of serum 6 to looped/cyclic peptide (PEPSCAN-ELISA) / Binding of serum 37 to looped/cyclic peptide (PEPSCAN-ELISA) / Binding of serum 37 to looped/cyclic peptides of protein X1 of SARS-CoV Urbani / Binding of serum 6 to linear peptides of protein X2 / Binding of serum 37 to linear peptides of protein X2 / Binding of serum 37 to looped/cyclic peptides of protein X2 of SARS-CoV Urbani / Binding of serum 6 to linear peptides of protein M of SARS-CoV Urbani / Binding of serum 37 to linear peptides of protein M of SARS-CoV Urbani / Binding of serum 6 to looped/cyclic peptides of protein M of SARS-CoV Urbani / Binding of serum 37 to looped/cyclic peptides of protein M of SARS-CoV Urbani / Binding of serum 6 to linear peptides of protein X3 of SARS-CoV Urbani / Binding of serum 37 to linear peptides of protein X3 of SARS-CoV Urbani / Binding of serum 37 to looped/cyclic peptides of protein X3 of SARS-CoV Urbani / Binding of serum 6 to linear peptides of protein X4 of SARS-CoV Urbani / Binding of serum 37 to linear peptides of protein X4 of SARS-CoV Urbani / Binding of serum 37 to looped/cyclic peptides of protein X4 of SARS-CoV Urbani / Binding of serum 6 to linear peptides of protein X5 of SARS-CoV Urbani / Binding of serum 37 to linear peptides of protein X5 of SARS-CoV Urbani / Binding of serum 37 to looped/cyclic peptides of protein X5 of SARS-CoV Urbani / Binding of serum 6 to linear peptides of protein N of SARS-CoV Urbani / Binding of serum 37 to linear peptides of protein N of SARS-CoV Urbani / Binding of serum 6 to linear peptide (PEPSCAN-ELISA) / Binding of serum 1a to looped/cyclic peptides of protein N of SARS-CoV Urbani / Binding of serum 1b to looped/cyclic peptides of protein N of SARS-CoV Urbani / Binding of serum 2 to looped/cyclic peptides of protein N of SARS-CoV Urbani / Binding of serum 6 to looped/cyclic peptides of protein N of SARS-CoV Urbani / Binding of serum 37 to looped/cyclic peptides of protein N of SARS-CoV Urbani / Binding of serum 62 to looped/cyclic peptides of protein N of SARS-CoV Urbani / Binding of serum London to looped/cyclic peptides of protein N of SARS-CoV Urbani / Binding of serum SARS-green to looped/cyclic peptides of protein N of SARS-CoV Urbani: unit not given here
[2] = test system: rabbit serum obtained by immunizing a rabbit with the SARS-CoV strain Frankfurt 1; format: binding; design: Binding of a rabbit serum to linear peptides / Binding of a rabbit serum to looped peptides / Rabbit serum linear peptides / Rabbit serum looped peptides / Binding of a rabbit serum to linear peptides of protein N of SARS-CoV Urbani (Rabbit serum linear peptides) / Binding of a rabbit serum to looped/cyclic peptides of protein N of SARS-CoV Urbani (Rabbit serum looped peptides): unit not given here
[3] = test system: recombinant human anti-SARS-CoV antibody 03-018; format: binding; design: Binding of antibody 03-018 to linear peptides of the N protein of SARS-CoV Urbani / Binding of antibody 03-018 to looped/cyclic peptides of the N protein of SARS-CoV Urbani: unit not given here
[4] = test system: control sera (pooled serum of ten healthy LUMC hospital workers; commercial negative donor pooled serum from the Dutch bloodbank); format: binding, human; design: Binding of Control serum LUMC to linear peptides / Binding of Control serum Blood-bank to linear peptides / Binding of Control serum LUMC to looped peptides / Binding of Control Serum Blood-Bank to Looped peptides / Binding of Control serum LUMC to linear peptides of the protein M of SARS-CoV Urbani / Binding of Control serum Blood-bank to linear peptides of the protein M of SARS-CoV Urbani / Binding of Control serum LUMC to looped peptides of the protein M of SARS-CoV Urbani / Binding of Control Serum Blood-Bank to Looped peptides of the protein M of SARS-CoV Urbani: unit not given here

Row | Sequence | Binding of serum 1a to linear peptides of protein N of SARS-CoV Urbani [1] | Binding of serum 1a to looped/cyclic peptides of protein N of SARS-CoV Urbani [1] | Binding of serum 1b to linear peptides of protein N of SARS-CoV Urbani [1] | Binding of serum 1b to looped/cyclic peptides of protein N of SARS-CoV Urbani [1] | Binding of serum 2 to linear peptides of protein N of SARS-CoV Urbani [1] | Binding of serum 2 to looped/cyclic peptides of protein N of SARS-CoV Urbani [1] | Binding of serum 6 to linear peptides of protein N of SARS-CoV Urbani [1] | Binding of serum 6 to looped/cyclic peptides of protein N of SARS-CoV Urbani [1] | Binding of serum 37 to linear peptides of protein N of SARS-CoV Urbani [1] | Binding of serum 37 to looped/cyclic peptides of protein N of SARS-CoV Urbani [1] | Binding of serum 62 to linear peptides of protein N of SARS-CoV Urbani [1] | Binding of serum 62 to looped/cyclic peptides of protein N of SARS-CoV Urbani [1] | Binding of serum London to linear peptides of protein N of SARS-CoV Urbani [1] | Binding of serum London to looped/cyclic peptides of protein N of SARS-CoV Urbani [1] | Binding of serum SARS-green to linear peptides of protein N of SARS-CoV Urbani [1] | Binding of serum SARS-yellow to linear peptides of protein N of SARS-CoV Urbani [1] | Binding of a rabbit serum to linear peptides of protein N of SARS-CoV Urbani (Rabbit serum linear peptides) [2] | Binding of a rabbit serum to looped/cyclic peptides of protein N of SARS-CoV Urbani (Rabbit serum looped peptides) [2] | Binding of antibody 03-018 to linear peptides of the N protein of SARS-CoV Urbani [3] | Binding of antibody 03-018 to looped/cyclic peptides of the N protein of SARS-CoV Urbani [3] | further results
1 | QHGKEELRFPRGQGV | 0.2 | 0.4 | 0.2 | 0.3 | 0.3 | 0.5 | 0.1 | 0.4 | 0.7 | 0.6 | 0.7 | 0.4 | 0.5 | 0.6 | 0.4 | 0.6 | 0.2 | 0.5 | 0.1 | 0.2 | Binding of serum SARS-green to looped/cyclic peptides of protein N of SARS-CoV Urbani [1]: 0.4; Binding of serum SARS-yellow to looped/cyclic peptides of protein N of SARS-CoV Urbani [1]: 0.7; Binding of Control Serum Blood-Bank to Looped peptides [4]: 0.7; Binding of Control serum Blood-bank to linear peptides [4]: 0.8; Binding of Control serum LUMC to linear peptides [4]: 0.7; Binding of Control serum LUMC to looped peptides [4]: 0.7
2 | QIAQFAPSASAFFGM | 0.3 | 0.5 | 0.1 | 0.3 | 0.2 | 0.5 | 0.2 | 0.3 | 0.7 | 0.8 | 0.6 | 0.8 | 0.5 | 0.5 | 0.7 | 0.7 | 0.1 | 0.5 | 0.1 | 0.3 | Binding of serum SARS-green to looped/cyclic peptides of protein N of SARS-CoV Urbani [1]: 0.5; Binding of serum SARS-yellow to looped/cyclic peptides of protein N of SARS-CoV Urbani [1]: 0.5.; Control Serum Blood-Bank Looped peptides [4]: 0.9; Control serum Blood-bank linear peptides [4]: 0.9; Control serum LUMC linear peptides [4]: 0.7; Control serum LUMC looped peptides [4]: 0.7
3 | QKKQPTVTLLPAADM | 0.3 |  | 0.2 |  | 0.2 |  | 0.2 |  | 0.7 |  | 0.6 |  | 0.6 |  | 0.4 | 0.5 | 0.2 | 0.7 | 0.1 | 0.3 | Recognition of the peptide by sera of SARS-CoV infected individuals, and form (linear, looped/cyclic) in which it is recognized [1]: recognized in looped/cyclic form; Control Serum Blood-Bank Looped peptides [4]: 0.9; Control serum Blood-bank linear peptides [4]: 0.7; Control serum LUMC linear peptides [4]: 0.6; Control serum LUMC looped peptides [4]: 0.7
